Reference: patent publication US6284785A, “1-arenesulfonyl-2-aryl-pyrrolidine and pyridine derivatives” (Hoffmann- La Roche Inc., priority 1999, dated 2001)
Where a name gives a salt, the structure may show the parent alone.

Biological target: T1, rat mGlu 1a receptor (Rattus norvegicus, UniProt P23385)
T1 construct: expressed in transfected cells; host or cells: EBNA cells (transient transfection)
Test: [Ca2+]i measurements (FLIPR, Fluo-3 AM) on mGlu 1a transfected EBNA cells; agonist or antagonist (against 10 μM glutamate)
Type: cell-based
Conditions: for Remarks (agonist / antagonist): table of substituents of the Examples, column Remarks
Method: cDNA encoding rat mGlu 1a receptor obtained from Prof. Nakanishi (Kyoto, Japan) was transiently tranfected into EBNA cells using a procedure described by Schlaeger et. al, New Dev. New Appl. Anim Cell Techn., Proc. ESACT Meet., 15th (1998), 105-112 and 117-120. [Ca^2+ ]i measurements were performed on mGlu 1a transfected EBNA cells after incubation of the cells with Fluo-3 AM (0.5 μM final concentration) for 1hour at 37° C. followed by 4 washes with assay buffer (DMEM supplemented with Hank's salt and 20 mM HEPES. [Ca^2+ ]i measurements were done using a fluorometric imaging plate reader (FLIPR, Molecular Devices Corporation, La Jolla, Calif. USA). When compounds were evaluated as antagonists they were tested against 10 μM glutamate as agonist.
The inhibition (antagonists) or activation (agonists) curves were fitted with a four parameter logistic equation giving EC50, IC50, and Hill coefficient using the iterative non linear curve fitting software Origin (Microcal Software Inc., Northampton, Mass., USA).

T1 sequence (P23385 19-1199): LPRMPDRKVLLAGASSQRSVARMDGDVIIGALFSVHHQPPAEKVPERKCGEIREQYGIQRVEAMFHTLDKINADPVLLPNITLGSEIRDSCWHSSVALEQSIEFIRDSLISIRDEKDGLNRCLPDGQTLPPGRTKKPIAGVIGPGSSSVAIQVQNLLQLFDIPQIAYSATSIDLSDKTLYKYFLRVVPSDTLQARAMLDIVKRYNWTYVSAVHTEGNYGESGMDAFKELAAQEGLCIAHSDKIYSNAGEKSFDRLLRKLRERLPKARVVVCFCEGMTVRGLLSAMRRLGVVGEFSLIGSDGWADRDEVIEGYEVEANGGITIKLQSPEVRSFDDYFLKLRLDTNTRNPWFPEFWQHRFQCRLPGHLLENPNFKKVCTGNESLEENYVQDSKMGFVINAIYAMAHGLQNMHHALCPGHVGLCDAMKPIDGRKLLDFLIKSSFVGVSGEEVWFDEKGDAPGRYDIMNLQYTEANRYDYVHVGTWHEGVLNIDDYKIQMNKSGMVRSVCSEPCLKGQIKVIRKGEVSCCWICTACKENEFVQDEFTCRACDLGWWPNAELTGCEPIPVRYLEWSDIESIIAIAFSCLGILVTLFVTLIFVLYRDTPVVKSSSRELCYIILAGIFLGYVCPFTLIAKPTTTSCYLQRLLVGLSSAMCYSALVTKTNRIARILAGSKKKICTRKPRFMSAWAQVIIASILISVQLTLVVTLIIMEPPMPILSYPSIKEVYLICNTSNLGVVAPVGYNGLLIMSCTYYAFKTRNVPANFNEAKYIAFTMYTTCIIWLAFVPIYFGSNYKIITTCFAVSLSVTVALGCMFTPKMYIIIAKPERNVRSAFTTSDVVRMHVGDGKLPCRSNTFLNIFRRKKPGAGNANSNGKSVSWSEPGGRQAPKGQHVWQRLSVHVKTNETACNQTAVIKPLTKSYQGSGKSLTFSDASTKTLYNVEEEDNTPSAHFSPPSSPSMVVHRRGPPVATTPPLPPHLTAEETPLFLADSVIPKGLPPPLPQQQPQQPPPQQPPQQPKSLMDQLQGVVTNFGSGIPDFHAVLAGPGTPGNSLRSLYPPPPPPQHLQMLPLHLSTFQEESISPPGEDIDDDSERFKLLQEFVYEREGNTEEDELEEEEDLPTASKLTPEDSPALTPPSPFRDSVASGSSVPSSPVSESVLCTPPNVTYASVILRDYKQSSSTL

Row | Compound | Remarks (agonist / antagonist) | agonistic / antagonistic activity to the mGlu receptor | agonist/antagonist (activity-data table) | EC50 (agonist, activation of mGlu 1a in EBNA cells, read-out: IC50 (compounds marked agonist))
1 | O=C(O)/C=C/C(=O)O.O=S(=O)(c1ccc(CN2CCOCC2)cc1)N1CCCC1c1ccc(F)cc1 (racemic) [Example 86, (RS)-4-{4-[2-(4-Fluoro-phenyl)-pyrrolidine-1-sulfonyl]-benzyl}-morpholine fumarate (1:1)] | Antagonist |  |  | 
2 | O=S(=O)(c1ccc(Cl)cc1)N1CCC[C@@H]1c1ccc(F)cc1 [Example 76, (R)-1-(4-Chloro-benzenesulfonyl)-2-(4-fluoro-phenyl)-pyrrolidine] | Agonist |  |  | 
3 | O=S(=O)(c1ccc(Cl)cc1)N1CCC[C@H]1c1ccc(F)cc1 [Example 77, (S)-1-(4-Chloro-benzenesulfonyl)-2-(4-fluoro-phenyl)-pyrrolidine] | Agonist | agonistic activty |  | 
4 | Cc1ccc(S(=O)(=O)N2CCC[C@@H]2c2ccc(F)cc2)cc1 [Example 81, (R)-2-(4-Fluoro-phenyl)-1-(toluene-4-sulfonyl)-pyrrolidine] | Agonist | agonistic activty |  | 
5 | Cc1ccc(S(=O)(=O)N2CCC[C@H]2c2ccc(F)cc2)cc1 [Example 82, (S)-2-(4-Fluoro-phenyl)-1-(toluene-4-sulfonyl)-pyrrolidine] | Agonist | agonistic activty |  | 

Next, values leading:

Row | Remarks (agonist / antagonist) | agonistic / antagonistic activity to the mGlu receptor | agonist/antagonist (activity-data table) | EC50 (agonist, activation of mGlu 1a in EBNA cells, read-out: IC50 (compounds marked agonist)) | Compound
6 | Antagonist |  |  |  | NCc1ccc(S(=O)(=O)N2CCCC2c2ccc(F)cc2)cc1 (racemic) [Example 87, (RS)-4-[2-(4-Fluoro-phenyl)-pyrrolidine-1-sulfonyl]-benzylamine fumarate (1:0.5)]
7 | agonist | agonistic activty | agonist | 620 nM | Cc1ccc(S(=O)(=O)N2CCC(C)C2c2ccc(F)cc2)cc1 (racemic) [Example 88, Mixture of (2RS,3RS )- and (2RS,3SR)-2-(4-fluoro-phenyl)-3-methyl-1-(toluene-1-sufonyl)-pyrrolidine]
8 | agonist | agonistic activty |  |  | CC1CCN(S(=O)(=O)c2ccc(Cl)cc2)C1c1ccc(F)cc1 (racemic) [Example 89, Mixture of (2RS,3RS)- and (2RS,3 SR)-1-(4-chloro-benzenesulfonyl)-2-(4-fluoro-phenyl)-3-methyl-pyrrolidine]
9 | agonist | agonistic activty |  |  | Cc1ccc(S(=O)(=O)N2CC[C@@H](CO)[C@@H]2c2ccc(F)cc2)cc1 (racemic) [Example 91, (2RS,3 RS)-[2-(4-Fluoro-phenyl)-1-(toluene-4-sulfonyl)-pyrrolidin-3-yl]-methanol]
